In data set [1] the test system is MCF-7 (estrogen receptor positive breast cancer cells). Conditions: previously published values; cited from earlier work.
Data set [2] deals with SkBr3 (Her2 overexpressing breast cancer cells). Conditions: previously published values; cited from earlier work.
The subject of data set [3] is primary cortical neurons. Kind of data set: Toxicity of drug alone in neuronal cells (Live-Dead assay). It counts as cell-based. The source says: More specifically, primary cortical neurons were recovered from embryonic day 18 rat brains as described previously (Michaelis et al., Immunological Localization And Kinetic Characterization Of A Na+/Ca2+Exchanger In Neuronal And Nonneuronal Cells, Brain Res. 661 104-116 (1994)). Briefly, about 10 to 16 brains were removed from fetuses delivered by cesarean section, and the cortices dissected out. The neurons were isolated and suspended in DMEM/F12 supplemented with 10% FBS and plated on sterile dishes or cover slips coated with 10 μg/ml poly-D-lysine and 5 μg/ml mouse laminin. After 24 hours, the serum-containing medium was removed, and neurons were maintained in Neurobasal medium (Gibco) with 2% B-27 supplements (Gibco). Cells were maintained in culture at 37° C. in 5% CO2 and 97% humidity for 7 to 8 eight days in vitro (DIV) before use. […] Stock solutions of Aβ were prepared in sterile water at a concentration of 1.3 mM and stored at −20° C. Aliquots of the stock solutions were diluted to 1 mM in sterile 50 mM Tris-HCl, pH 7.4, and incubated at 37° C. for 24 hours to promote oligomerization of the peptides prior to treatment of the neurons. The effects of KU-1/A4, GA, Aβ, or the indicated combinations on neuronal viability were determined by monitoring cell survival using the Live-Dead assay as previously described. […] Digital images from 6 fields per dish were captured, and the number of viable (green) and dead (red) cells counted. All experiments were conducted with duplicate dishes from at least two neuronal preparations for each treatment, with about 1,000 cells analyzed/treatment condition. The data are expressed as the fraction of viable cells calculated from the total number of neurons counted under each treatment condition. The significance of differences between cultures exposed to various treatment conditions was determined using Student's t-test.

In data set [4] the test system is cancer cell lines. Kind of data set: Anti-proliferative activity, statements covering several cancer cell lines. It counts as cell-based. The settings on record: SkBr3 and MCF-7, 1 μM. How it is done: Upon completion of synthesis of library of compounds in Examples 23 and 24, the compounds were evaluated for anti-proliferative activity against SkBr3 (Her2 overexpressing breast cancer cells), MCF-7 (estrogen receptor positive breast cancer cells), HCT-116 (colon cancer cells characterized by wild-type p53), PL45 (pancreatic cancer cells), LNCaP (androgen sensitive prostate cancer cells) and PC-3 (androgen independent prostate cancer cells) cell lines. […] The monosubstituted benzamide variants improved activity.
(§1) Cells were maintained in a 1:1 mixture of Advanced DMEM/F12 (Gibco) supplemented with non-essential amino acids, L-glutamine (2 mM), streptomycin (500 ng/mL), penicillin (100 units/mL), and 10% FBS. Cells were grown to confluence in a humidified atmosphere (37° C., 5% CO2), seeded (2000/well, 100 μl) in 96-well plates, and allowed to attach overnight. Compound or GDA at varying concentrations in DMSO (1% DMSO final concentration) was added, and cells were returned to the incubator for 72 hours. At 72 hours, the number of viable cells was determined using an MTS/PMS cell proliferation kit (Promega) per the manufacturer's instructions. Cells incubated in 1% DMSO were used at 100% proliferation, and values were adjusted accordingly. IC50 values were calculated from separate experiments performed in triplicate using GraphPad Prism.
as §1, with “μg/mL),” for “ng/mL),”, “μL)” for “μl)”

Data set [5] deals with MCF-7 (estrogen receptor positive breast cancer cells). Kind of data set: Anti-proliferation activity against MCF-7 cells (MTS/PMS). The format is cell-based. Conditions: Homo sapiens, MCF7; Table 5, heterocyclic analogues; n = 3; read-out: IC50 MCF-7. In a few lines: (§2)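 Cells seeded at 2000/well, attached overnight, then exposed to compound at varying concentrations (1% DMSO final) for 72 hours at 37° C. Viable cells read by MTS/PMS, normalised to 1% DMSO as 100% proliferation. IC50 from separate triplicate experiments.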

Data set [6] deals with HCT-116 (colon cancer cells characterized by wild-type p53). The data set can be described thus: Anti-proliferation activity against HCT-116 cells. It counts as cell-based. The settings on record: Homo sapiens, Table 5, heterocyclic analogues, n = 3.
For data set [7], the system named is LNCaP (androgen sensitive prostate cancer cells). Kind of data set: Anti-proliferation activity against LNCaP cells. The format is cell-based. Conditions: Homo sapiens, LNCaP; Table 5, heterocyclic analogues; n = 3; read-out: IC50 LNCaP. In a few lines:
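Cells seeded at 2000/well in Advanced DMEM/F12 with 10% FBS and attached overnight, then given compound in 1% DMSO final for 72 h at 37 °C, 5% CO2. Viable cells by MTS/PMS read-out, normalised to 1% DMSO as 100% proliferation. IC50 from separate triplicate experiments.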

Data set [8] concerns PC-3 (androgen independent prostate cancer cells). The data set can be described thus: Anti-proliferation activity against PC-3 cells. The format is cell-based. The settings on record: Homo sapiens, PC-3; Table 5, heterocyclic analogues; n = 3; read-out: IC50 PC-3. In a few lines: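 Antiproliferative activity was tested in PC-3 androgen-independent prostate cancer cells. Cells grown at 37° C. with 5% CO2 in Advanced DMEM/F12 (1:1) containing non-essential amino acids, 2 mM L-glutamine, streptomycin, penicillin and 10% FBS were plated at 2000/well in 96-well plates. Proliferation was normalized to 1% DMSO controls, and IC50 values from triplicate experiments were fitted in GraphPad Prism.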

The test system of data set [9] is SkBr3 (Her2 overexpressing breast cancer cells). The data set can be described thus: Anti-proliferation activity against SkBr3 cells (MTS/PMS). It counts as cell-based. In a few lines:
as §2

The subject of data set [10] is PL45 (pancreatic cancer cells). Kind of data set: Anti-proliferation activity against PL45 cells. The settings on record: Table 5, heterocyclic analogues, n = 3. The format is cell-based.
The test system of data set [11] is Hsp90 client proteins Her2, Raf and Akt in MCF-7 breast cancer cells. The data set can be described thus: Hsp90 client protein degradation, Western blot in MCF-7 cells. The format is cell-based. As for the experimental part:
FIG. 17 is a western blot analysis of Hsp90 client protein degradation assays against MCF-7 breast cancer cells. The concentration of compound 46 (in μM) is denoted above each lane. Geldamycin and DMSO were used as positive and negative controls, respectively.
In order to provide additional evidence that the growth inhibitory activity manifested by the 2-indoleamide compound 46 resulted from Hsp90 inhibition, 46 was evaluated by its ability to induce degradation of Hsp90-dependent client proteins. […] Since non-Hsp90-dependent substrates such as actin remained unchanged, the inhibition of cell growth was directly correlated to the degradation of Hsp90-dependent client proteins.
A general note: In western blotting, separated proteins are transferred to a membrane and probed.

The subject of data set [12] is Hsp90-dependent client proteins ErbB2 (Her2) and p53 in SKBr3 breast cancer cells. Conditions: previous studies; cited from earlier work.
The test system of data set [13] is Hsp90 client protein Her-2 in Skbr3 breast cancer cells. Kind of data set: Degradation of Her-2, Western blot in Skbr3 cells. It counts as cell-based. Conditions: Homo sapiens, SK-BR-3, read-out: IC50 (concentration producing 50% degradation of Her-2), 24 hours, normalized against actin. How it is done: After incubation, the cells were harvested, lysed, and equal amounts of the protein lysates loaded into SDS wells. After electrophoresis, the gel was probed with Her-2 and actin (control) antibodies.

We go through three compounds from US9120774B2 (University of Kansas, priority 2009, dated 2015).

The structures appear in SMILES notation. Like-named read-outs stand apart in the source and are kept apart here.

On to `COC1=C2C[C@@H](C)C[C@H](OC)[C@H](O)[C@@H](C)/C=C(\C)[C@H](OC(N)=O)[C@@H](OC)/C=C\C=C(/C)C(=O)NC(=CC1=O)C2=O` [GA, reference compound], for which the IC50 is 133 nM in data set [1] and 18 nM in [2]. For the same compound, the “cytotoxicity in neuronal cells” value in [3] (10 μM, 24 hours) is “significant cytotoxicity”; in data set [3] (lower concentrations, 72 hours), “substantial cytotoxicity”. Further, the cytotoxicity entry in data set [4] is “almost complete cytotoxicity”.

With `CO[C@@H]1[C@@H](O)[C@@H](O)[C@H](Oc2ccc3cc(NC(=O)c4cc5ccccc5[nH]4)c(=O)oc3c2C)OC1(C)C` [compound 46, N-(7-((2R,3R,4S,5R)-3,4-Dihydroxy-5-methoxy-6,6-dimethyltetrahydro-2H-pyran-2-yloxy)-8-methyl-2-oxo-2H-chromen-3-yl)-1H-indole-2-carboxamide], the IC50 in [5] amounted to 570 ± 70 nM; in data set [6] it was 170 ± 10 nM; in data set [7], 12200 nM; in [8], 22300 ± 10100 nM; in data set [9] (Homo sapiens, SK-BR-3, Table 5, heterocyclic analogues, n = 3, read-out: IC50 SkBr3), 370 ± 60 nM; in data set [10], 470 ± 340 nM. Moreover, the “fold increased activity compared to novobiocin” value in data set [9] (SkBr3 cells) is on record as “greater than 500 fold”. In addition, the “Hsp90 client proteins Her2, Raf and Akt” value in [11] is listed as “degraded in a concentration-dependent manner”. Besides, the Hsp90 level entry in data set [11] is “induced”.

In the case of `CO[C@@H]1[C@@H](OC(N)=O)[C@@H](O)[C@H](Oc2ccc3c(O)c(NC(=O)c4ccc(O)c(CC=C(C)C)c4)c(=O)oc3c2C)OC1(C)C` [novobiocin, reference compound], the “concentration inducing degradation of ErbB2” value in data set [12] is on record as “about 700 μM”. Also, the IC50 in data set [13] worked out at 700000 nM.
